Data reported in patent publication US20230081426A1, “COMPOUNDS AND METHODS FOR KRAS MODULATION AND INDICATIONS THEREFOR” (Plexxikon Inc., priority 2020, published 2023).

What was measured:
[1] = target: T1, G12V-mutant human KRAS (amino acid residues 1-188) (Homo sapiens, UniProt P01116, G12V); assay: KRAS Binding Competition Assay (AlphaScreen; biotinylated KRpep-2d analogue), G12V; settings: geometric mean, read-out: KRAS GMean IC50 (uM) MUTATION: G12V
T1 construct: G12V-mutant human KRAS (amino acid residues 1-188) with FLAG tag was purified from E. coli; made in house; host or cells: E. coli

[2] = target: T2, G12D-mutant human KRAS (amino acid residues 1-188) (Homo sapiens, UniProt P01116, G12D); assay: KRAS Binding Disruption Assay (AlphaScreen; biotinylated KRpep-2d analogue or RAF1-RBD), G12D; settings: KRAS G12D; geometric mean; read-out: KRAS GMean IC50 (uM) MUTATION: G12D
T2 construct: G12D or G12C-mutant human KRAS (amino acid residues 1-188) with FLAG tag; made in house; host or cells: E. coli
Outline: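 Mutant KRAS (5-20 nM) incubated 1 h at 25° C with test compound and 5-20 nM biotinylated KRpep-2d analogue or RAF1-RBD in 20 mM HEPES pH 7.5, 100 mM NaCl, 5 mM MgCl2, 0.01% Tween-20, 0.01% BSA.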

Compound	IC50 [1] [µM]	IC50 [2] [µM]
OCC1(COc2nc(N3C[C@H]4CC[C@@H](C3)N4)c3ccc(-c4cc(O)cc5ccccc45)c(F)c3n2)COC1 [P-0613, 4-(4-((1R,5S)-3,8-diazabicyclo[3.2.1]octan-3-yl)-8-fluoro-2-((3-(hydroxymethyl)oxetan-3-yl)methoxy)quinazolin-7-yl)naphthalen-2-ol]	10 to 100	0.0001 to 10
OCC1(COc2nc(N3C[C@H]4CC[C@@H](C3)N4)c3ccc(-c4cc(O)cc5ccccc45)c(F)c3n2)CC1 [P-0614, 4-(4-((1R,5S)-3,8-diazabicyclo[3.2.1]octan-3-yl)-8-fluoro-2-((l (hydroxymethyl)cyclopropyl)methoxy)quinazolin-7-yl)naphthalen-2-ol]	10 to 100	0.0001 to 10
CNC(=O)CCOc1nc(N2C[C@H]3CC[C@@H](C2)N3)c2ccc(-c3cc(O)cc4ccccc34)c(F)c2n1 [P-0616, 3-((4-((1R,5S)-3,8-diazabicyclo[3.2.1]octan-3-yl)-8-fluoro-7-(3-hydroxynaphthalen-1-yl)quinazolin-2-yl)oxy)-N-methylpropanamide]	10 to 100	0.0001 to 10
CC(C)(COc1nc(N2C[C@H]3CC[C@@H](C2)N3)c2ccc(-c3cc(O)cc4ccccc34)c(F)c2n1)NC(N)=O [P-0619, 1-(1-((4-((1R,5S)-3,8-diazabicyclo[3.2.1]octan-3-yl)-8-fluoro-7-(3-hydroxynaphthalen-1-yl)quinazolin-2-yl)oxy)-2-methylpropan-2-yl)urea]	10 to 100	0.0001 to 10
Oc1cc(-c2ccc3c(N4CC5CCC(C4)N5)nc(OCC4CCC(O)C4)nc3c2F)c2ccccc2c1 [P-0622, 4-(4-((1R,5S)-3,8-diazabicyclo[3.2.1]octan-3-yl)-8-fluoro-2-((3-hydroxycyclopentyl)methoxy)quinazo-lin-7-yl)naphthalen-2-ol]	10 to 100	0.0001 to 10
CN1CCc2c(cccc2Oc2nc(N3C[C@H]4CC[C@@H](C3)N4)c3ccc(-c4cc(O)cc5ccccc45)c(F)c3n2)C1 [P-0623, 4-(4-((1R,5S)-3,8-diazabicyclo[3.2.1]octan-3-yl)-8-fluoro-2-((2-methyl-1,2,3,4-tetrahydroisoquinolin-5-yl)oxy)quinazolin-7-yl)naphthalen-2-ol]	10 to 100	0.0001 to 10
Fc1c(-c2c[nH]c3cccc(C(F)F)c23)ccc2c(N3C[C@H]4CC[C@@H](C3)N4)nc(OCC34CCCN3CCC4)nc12 [P-0625, 4-((1R,5S)-3,8-diazabicyclo[3.2.1]octan-3-yl)-7-(4-(difluoromethyl)-1H-indol-3-yl)-8-fluoro-2-((tetrahydro-1H-pyrrolizin-7a(5H)-yl)methoxy)quinazoline]	0.0001 to 10	0.0001 to 10
CNC(=O)CN1[C@@H]2CC[C@H]1CN(c1nc(OCC34CCCN3CCC4)nc3c(F)c(-c4cc(O)cc5ccccc45)ccc13)C2 [P-0627, 2-((1R,5S)-3-(8-fluoro-7-(3-hydroxynaphthalen-1-yl)-2-((tetrahydro-1H-pyrrolizin-7a(5H)-yl)methoxy)quinazolin-4-yl)-3,8-diazabicyclo[3.2.1]octan-8-yl)-N-methylacetamide]	0.0001 to 10	0.0001 to 10
CN(C)C(C)(C)CNc1nc(N2C[C@H]3CC[C@@H](C2)N3)c2ccc(-c3cc(O)cc4ccccc34)c(F)c2n1 [P-0630, 4-(4-((1R,5S)-3,8-diazabicyclo[3.2.1]octan-3-yl)-2-((2-(dimethylamino)-2-methylpropyl)amino)-8-fluoroquinazolin-7-yl)naphthalen-2-ol]	10 to 100	0.0001 to 10
Oc1cc(-c2ccc3c(N4C[C@H]5CC[C@@H](C4)N5)nc(NCC45CCCN4CCC5)nc3c2F)c2ccccc2c1 [P-0631, 4-(4-((1R,5S)-3,8-diazabicyclo[3.2.1]octan-3-yl)-8-fluoro-2-(((tetrahydro-1H-pyrrolizin-7a(5H)-yl)methyl)amino)quinazolin-7-yl)naphthalen-2-ol]	10 to 100	0.0001 to 10

The remaining lines, values ahead:

IC50 [1] [µM]	IC50 [2] [µM]	Compound
10 to 100	0.0001 to 10	N#CCc1cccc2[nH]cc(-c3ccc4c(N5C[C@H]6CC[C@@H](C5)N6)nc(OCC56CCCN5CCC6)nc4c3F)c12 [P-0615, 2-(3-(4-((1R,5S)-3,8-diazabicyclo[3.2.1]octan-3-yl)-8-fluoro-2-((tetrahydro-1H-pyrrolizin-7a(5H)-yl)methoxy)quinazolin-7-yl)-1H-indol-4-yl)acetonitrile]
10 to 100	0.0001 to 10	Oc1cc(-c2ccc3c(N4C[C@H]5CC[C@@H](C4)N5)nc(OCC4CCC4O)nc3c2F)c2ccccc2c1 (stereo partly drawn) [P-0617, 4-(4-((1R,5S)-3,8-diazabicyclo[3.2.1]octan-3-yl)-8-fluoro-2-((2-hydroxycyclobutyl)methoxy)quinazolin-7-yl)naphthalen-2-ol]
10 to 100	0.0001 to 10	CC(C)(CN)COc1nc(N2C[C@H]3CC[C@@H](C2)N3)c2ccc(-c3cc(O)cc4ccccc34)c(F)c2n1 [P-0618, 4-(2-(3-amino-2,2-dimethylpropoxy)-4-((1R,5S)-3,8-diazabicyclo[3.2.1]octan-3-yl)-8-fluoroquinazolin-7-yl)naphthalen-2-ol]
10 to 100	0.0001 to 10	CC(C)(COc1nc(N2C[C@H]3CC[C@@H](C2)N3)c2ccc(-c3cc(O)cc4ccccc34)c(F)c2n1)C(N)=O [P-0620, 3-((4-((1R,5S)-3,8-diazabicyclo[3.2.1]octan-3-yl)-8-fluoro-7-(3-hydroxynaphthalen-1-yl)quinazolin-2-yl)oxy)-2,2-dimethylpropanamide]
10 to 100	0.0001 to 10	CNC(=O)C(C)(C)COc1nc(N2C[C@H]3CC[C@@H](C2)N3)c2ccc(-c3cc(O)cc4ccccc34)c(F)c2n1 [P-0621, 3-((4-((1R,5S)-3,8-diazabicyclo[3.2.1]octan-3-yl)-8-fluoro-7-(3-hydroxynaphthalen-1-yl)quinazolin-2-yl)oxy)-N,2,2-trimethylpropanamide]
10 to 100	0.0001 to 10	O=Cc1cccc2[nH]cc(-c3c(F)cc4c(N5C[C@H]6CC[C@@H](C5)N6)nc(OCC56CCCN5CCC6)nc4c3F)c12 [P-0624, 3-(4-((1R,5S)-3,8-diazabicyclo[3.2.1]octan-3-yl)-6,8-difluoro-2-((tetrahydro-1H-pyrrolizin-7a(5H)-yl)methoxy)quinazolin-7-yl)-1H-indole-4-carbaldehyde]
10 to 100	0.0001 to 10	Cc1[nH]c2ccccc2c1-c1ccc2c(N3C[C@H]4CC[C@@H](C3)N4)nc(OCC34CCCN3CCC4)nc2c1F [P-0626, 4-((1R,5S)-3,8-diazabicyclo[3.2.1]octan-3-yl)-8-fluoro-7-(2-methyl-1H-indol-3-yl)-2-((tetrahydro-1H-pyrrolizin-7a(5H)-yl)methoxy)quinazoline]
0.0001 to 10	0.0001 to 10	OCCCN1[C@@H]2CC[C@H]1CN(c1nc(OCC34CCCN3CCC4)nc3c(F)c(-c4cc(O)cc5ccccc45)ccc13)C2 [P-0628, 4-(8-fluoro-4-((1R,5S)-8-(3-hydroxypropyl)-3,8-diazabicyclo[3.2.1]octan-3-yl)-2-((tetrahydro-1H-pyrrolizin-7a(5H)-yl)methoxy)quinazolin-7-yl)naphthalen-2-ol]
10 to 100	0.0001 to 10	OCC1CN(c2nc(N3C[C@H]4CC[C@@H](C3)N4)c3ccc(-c4cc(O)cc5ccccc45)c(F)c3n2)CC1O (stereo partly drawn) [P-0629, 1-(4-((1R,5S)-3,8-diazabicyclo[3.2.1]octan-3-yl)-8-fluoro-7-(3-hydroxynaphthalen-1-yl)quinazolin-2-yl)-4-(hydroxymethyl)pyrrolidin-3-ol]
